In patent US11638712B2, “Bis(acetamidophenyl) guanidinophenylethylphosphonates for use in the prevention and/or treatment of PAR-related diseases” (Universiteit Antwerpen, priority 2016, dated 2023):

Columns and labels:
thrombin = target: T1, thrombin (Homo sapiens, UniProt P00734); test: in vitro serine protease inhibition profile: thrombin; format: biochemical
T1 construct: panel of serine proteases: uPA, tPA, thrombin, plasmin, FXIIa

plasmin = target: T2, plasmin (Homo sapiens, UniProt P00747); test: in vitro serine protease inhibition profile: plasmin; format: biochemical
T2 construct: panel of serine proteases: uPA, tPA, thrombin, plasmin, FXIIa

tryptase = tryptase (Homo sapiens, UniProt Q15661); test: in vitro serine protease inhibition profile: tryptase; format: biochemical
KLK8 = target: T3, KLK8 (Homo sapiens, UniProt O60259); test: in vitro serine protease inhibition profile: KLK8; format: biochemical
T3 sequence (O60259 33-260): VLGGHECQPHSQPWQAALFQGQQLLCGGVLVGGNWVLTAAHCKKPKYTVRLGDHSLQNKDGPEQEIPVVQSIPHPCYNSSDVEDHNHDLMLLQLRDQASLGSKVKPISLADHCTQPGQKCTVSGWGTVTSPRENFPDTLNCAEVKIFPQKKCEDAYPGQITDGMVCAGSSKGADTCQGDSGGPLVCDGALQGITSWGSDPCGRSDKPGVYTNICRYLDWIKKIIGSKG

post-colitis rats = test: post-colitis rat model for visceral pain, visceromotor response (VMR) to colorectal distension; settings: for effect on VMRs (visceral pain) / effective dose in visceral pain model: post-colitis rats; for effective dose in visceral pain model: i.p.
Description: Male Sprague-Dawley rats (200-225 g; Charles River, Italy) were used in all experiments. Rats were housed at a constant room temperature (22±2° C.) and humidity (60%). The animals had unlimited access to water and food and were kept on a 12 h:12 h day-night cycle. They were allowed to acclimatize for at least 1 week before the start of the experiments.
In this set-up, a mild colitis was induced in the post-colitis group on day 0, using a TNBS-enema. The control group received an intrarectal administration with 0.9% NaCl. The presence of colitis was verified by a colonoscopy on day 3. From day 10 onwards, a colonoscopy was performed every 4 days to follow-up the healing of the colonic mucosa. When the colonic mucosa was completely healed, further experiments were performed 3 days later. […] After the VMR measurement, the animals were sacrificed.
TNBS-colitis was induced at day 0 using a TNBS-enema (4 mg TNBS, 50% ethanol). […] Control animals received 0.25 ml 0.9% NaCl intrarectally. The animals were kept in a tail-up position during 1 min and were then allowed to recover in a Trendelenburg position.
Electromyographic (EMG) electrodes were implanted into the external abdominal muscle and 3 days later, the VMR experiment was performed in conscious rats. A lubricated balloon (length 5 cm) was introduced into the colorectum of the animal and connected to a barostat (Distender Series II Barostat, G&J Electronics, Canada). The EMG electrodes were attached to a data-acquisition system and a phasic distension protocol (10-20-30-40-60 mmHg, 20 s, 4 min interval) was sent through the barostat. […] The VMR was quantified using the area under the curve (AUC) of the EMG signal during the distension (20 s) corrected for the EMG signal before the distension (20 s).
22.0. The results of the VMR experiments analyzed using a Generalized Estimating Equations (GEE) test with Least Significant Difference (LSD) post-hoc test. A p-value<0.05 was considered as being statistically significant. The graphs were made with GraphPad Prism 6.0.
Visceral sensitivity was assessed using the visceromotor responses (VMRs) to a colorectal distension, shown in the graphs below as area under the curve (AUC; y-axis; μV.20 s-1) for each distension pressure (x-axis; mmHg). Serine proteases seem to play an important role in the pathogenesis of visceral pain.

[1] = system: TNF-α and IL-1α in tear fluid; test: rat dry eye model, pro-inflammatory cytokines in tear fluid; format: in vivo; settings: dry eye rats
Description: (§1) Female Wistar rats (200-300 g, Janvier, Roubaix, France) were kept under standard pathogen-free conditions. Husbandry conditions: room temperature 20-25° C., humidity 50-60% and a day-night cycle of 12 h light/12 h dark. Food and water were available ad libitum. All in vivo manipulations were approved by the Animal Ethical Committee of the University of Antwerp (2013-67) and are in accordance to the ARRIVE guidelines for the use of animals in ophthalmic and vision research.
(§2) To remove the gland, a small incision was made beneath the right ear. The lacrimal glands of the left eye were kept intact, leaving each animal with its own individual control and eliminating the need for extra control groups. Progression of dry eye was monitored for 24 days and tear volume measurements and fluorescein staining were performed once a week. Tears were collected twice a week.
Tear fluid was collected once a week with 10 μl capillaries (Blaubrand® Intramark, Wertheim, Germany) connected with a flexible tube to a syringe. […]
TNF-α and IL-1α concentrations in tear fluid were measured flow cytometrically (FACS calibur, BD Biosciences), using Cytometric Bead Array (CBA) according to the manufacturers protocol (Rat IL-1α and TNF-α CBA flex sets, BD Biosciences, Erembodegem Belgium.
Tear fluid was obtained twice a week. Tear volume and tissue damage was evaluated once a week. […]

[2] = rat dry eye model, aqueous tear production (phenol red thread); format: in vivo; settings: dry eye rats, 2 concentrations
Description: as §1, §2
A phenol red thread (Zone Quick®, Menicon Co. Ltd, Nagoya, Japan) was placed in the lateral cantus of the conjunctival fornix for 15 seconds. […] Tear fluid volumes were measured once a week.
Tear fluid was obtained twice a week. Tear volume and tissue damage was evaluated once a week. Animals were treated with Restasis® (2×/day), UAMC50, UAMC1162, UAMC1169/vehicle (2×/day) for 3 consecutive weeks. Compounds 1, 2 and 4 were formulated as follows: […]

[3] = 1 mg/kg i.p., single administration

T2 sequence (P00747 581-810 limits assumed, species assumed): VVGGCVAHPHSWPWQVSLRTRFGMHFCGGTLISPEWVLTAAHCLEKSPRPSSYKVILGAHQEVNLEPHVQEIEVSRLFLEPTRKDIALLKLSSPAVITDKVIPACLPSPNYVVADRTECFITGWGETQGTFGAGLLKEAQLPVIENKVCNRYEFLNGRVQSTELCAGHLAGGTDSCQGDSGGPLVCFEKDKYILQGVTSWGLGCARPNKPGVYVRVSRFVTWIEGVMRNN
T2 sequence (P00747 97-580 partner limits assumed, species assumed): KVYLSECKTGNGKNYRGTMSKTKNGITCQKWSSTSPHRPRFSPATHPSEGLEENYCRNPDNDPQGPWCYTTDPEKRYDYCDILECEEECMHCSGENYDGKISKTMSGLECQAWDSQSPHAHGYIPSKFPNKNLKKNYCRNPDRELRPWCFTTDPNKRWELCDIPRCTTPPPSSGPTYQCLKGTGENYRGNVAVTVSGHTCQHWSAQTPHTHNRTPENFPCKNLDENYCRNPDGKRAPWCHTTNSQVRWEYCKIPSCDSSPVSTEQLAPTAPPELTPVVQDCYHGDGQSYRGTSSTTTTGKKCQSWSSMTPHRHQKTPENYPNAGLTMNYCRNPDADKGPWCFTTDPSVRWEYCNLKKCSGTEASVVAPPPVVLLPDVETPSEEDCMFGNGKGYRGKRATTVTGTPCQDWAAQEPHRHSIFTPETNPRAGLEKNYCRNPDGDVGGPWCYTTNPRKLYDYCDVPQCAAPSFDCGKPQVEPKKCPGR
Sequence of tryptase (Q15661 31-275): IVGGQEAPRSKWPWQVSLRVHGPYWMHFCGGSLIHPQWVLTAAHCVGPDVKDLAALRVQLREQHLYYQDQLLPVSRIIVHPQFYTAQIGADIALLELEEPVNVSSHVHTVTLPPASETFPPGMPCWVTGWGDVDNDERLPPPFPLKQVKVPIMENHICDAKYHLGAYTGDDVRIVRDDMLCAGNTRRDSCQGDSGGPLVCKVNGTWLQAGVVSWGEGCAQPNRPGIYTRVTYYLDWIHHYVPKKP

CC(=O)Nc1ccc(OP(=O)(Oc2ccc(NC(C)=O)cc2)C(Cc2ccc(NC(=N)N)cc2)NC(=O)OCc2ccccc2)cc1 (centres unmarked) [Compound 4]
IC50 (thrombin): 257 nM | IC50 (plasmin): > 2500 nM | IC50 (tryptase): 5 nM | IC50 (KLK8): 2 nM | effect on visceral sensitivity (post-colitis rats; control rats, 1 mg/kg i.p.): no significant effect on visceral sensitivity | effect on VMRs (visceral pain) (post-colitis rats; 0.01 mg/kg i.p., single administration 30 min before VMR): no significant effect | effect on VMRs (visceral pain) (post-colitis rats; 0.1 mg/kg i.p., single administration): significantly lowered VMRs | effect on VMRs (visceral pain) (post-colitis rats; [3]): visceral pain had completely disappeared | effective dose in visceral pain model (post-colitis rats): 0.1 mg/kg | anti-inflammatory effect on IL-1α and TNF-α in tear fluid ([1]; 5 mM): significant anti-inflammatory effect | anti-inflammatory effect on IL-1α and TNF-α in tear fluid ([1]; two concentrations, compared with Restasis, FIGS. 6 and 7): overall stronger anti-inflammatory effect and faster onset of action effect than Restasis© | effect on tear volume [2]: no significant effects have been observed on tear volume

COC(=O)NC(Cc1ccc(NC(=N)N)cc1)P(=O)(Oc1ccccc1)Oc1ccccc1 (centres unmarked) [Compound 1]
IC50 (thrombin): > 2500 nM | IC50 (plasmin): > 2500 nM | IC50 (tryptase): 93 nM | IC50 (KLK8): 28 nM | effect on VMRs (visceral pain) (post-colitis rats; [3]): no clear reduction of the VMRs was seen | effect on VMRs (visceral pain) (post-colitis rats; 2.5 mg/kg i.p.): visceral pain had completely disappeared | effective dose in visceral pain model (post-colitis rats): at least 2.5 mg/kg | side effect observed (post-colitis rats; rats, 5 mg/kg): sedation was observed
